Biological target: T1, chimeric receptor having the extra-cellular domain of EGF-R and the intra-cellular domain of Her2 (Homo sapiens, UniProt P04626)
T1 construct: fused on or other part: the same chimera
Test: EGF-induced Her2-driven BrdU incorporation
Assay type: cell-based
Details: read-out: BrdU HER 2 driven IC50
Experimental: The cellular/catalytic assays described herein are performed in an ELISA format. The general procedure is as follows: a compound is introduced to cells expressing the test kinase, either naturally or recombinantly, for a selected period of time after which, if the test kinase is a receptor, a ligand known to activate the receptor is added. The cells are lysed and the lysate is transferred to the wells of an ELISA plate previously coated with a specific antibody recognizing the substrate of the enzymatic phosphorylation reaction. Non-substrate components of the cell lysate are washed away and the amount of phosphorylation on the substrate is detected with an antibody specifically recognizing phosphotyrosine compared with control cells that were not contacted with a test compound. The cellular/biologic assays described herein measure the amount of DNA made in response to activation of a test kinase, which is a general measure of a proliferative response. The general procedure for this assay is as follows: a compound is introduced to cells expressing the test kinase, either naturally or recombinantly, for a selected period of time after which, if the test kinase is a receptor, a ligand known to activate the receptor is added. After incubation at least overnight, a DNA labeling reagent such as Bromodeoxyuridine (BrdU) or 3H-thymidine is added. The amount of labeled DNA is detected with either an anti-BrdU antibody or by measuring radioactivity and is compared to control cells not contacted with a test compound.
EGF-Induced Her2-Driven BrdU Incorporation
Protocol • (1) Cells-are seeded at 8000 cells/well in DMEM, 10% CS, 2mM Gln in a 96-well plate. Cells are incubated overnight at 37° C. in 5% CO2. • (2) After 24 hours, the cells are washed with PBS, and then are serum starved in serum free medium (0% CS DMEM with 0.1% BSA) for 24 hours. • (3) On day 3, ligand (EGF=2 nM, prepared in DMEM with 0.1% BSA) and test compounds are added to the cells simultaneously. The negative control wells receive serum free DMEM with 0.1% BSA only, the positive control cells receive the ligand (EGF) but no test compound. Test compounds are prepared in serum free DMEM with ligand in a 96 well plate, and serially diluted for 7 test concentrations. • (4) After 20 hours of ligand activation, diluted BrdU labeling reagent (1:100 in DMEM, 0.1% BSA) is added and the cells are incubated with BrdU (final concentration=10 μM) for 1.5 hours. • (5) After incubation with labeling reagent, the medium is removed by decanting and tapping the inverted plate on a paper towel. FixDenat solution is added (50 μl/well) and the plates are incubated at room temperature for 45 minutes on a plate shaker. • (6) The FixDenat solution is thoroughly removed by decanting and tapping the inverted plate on a paper towel. Milk is added (5% dehydrated milk in PBS, 200 μ/well) as a blocking solution and the plate is incubated for 30 minutes at room temperature on a plate shaker. • (7) The blocking solution is removed by decanting and the wells are washed once with PBS. Anti-BrdU-POD solution (1:100 dilution in PBS, 1% BSA) is added (100 μl/well) and the plate is incubated for 90 minutes at room temperature on a plate shaker. • (8) The antibody conjugate is thoroughly removed by decanting and rinsing the wells 5 times with PBS, and the plate is dried by inverting and tapping on a paper towel. • (9) TMB substrate solution is added (100 μl/well) and incubated for 20 minutes at room temperature on a plate shaker until color development is sufficient for photometric detection. • (10) The absorbance of the samples are measured at 410 nm (in “dual wavelength” mode with a filter reading at 490 nm, as a reference wavelength) on a Dynatech ELISA plate reader.

T1 sequence (P04626 676-1255 limits assumed, change not shown): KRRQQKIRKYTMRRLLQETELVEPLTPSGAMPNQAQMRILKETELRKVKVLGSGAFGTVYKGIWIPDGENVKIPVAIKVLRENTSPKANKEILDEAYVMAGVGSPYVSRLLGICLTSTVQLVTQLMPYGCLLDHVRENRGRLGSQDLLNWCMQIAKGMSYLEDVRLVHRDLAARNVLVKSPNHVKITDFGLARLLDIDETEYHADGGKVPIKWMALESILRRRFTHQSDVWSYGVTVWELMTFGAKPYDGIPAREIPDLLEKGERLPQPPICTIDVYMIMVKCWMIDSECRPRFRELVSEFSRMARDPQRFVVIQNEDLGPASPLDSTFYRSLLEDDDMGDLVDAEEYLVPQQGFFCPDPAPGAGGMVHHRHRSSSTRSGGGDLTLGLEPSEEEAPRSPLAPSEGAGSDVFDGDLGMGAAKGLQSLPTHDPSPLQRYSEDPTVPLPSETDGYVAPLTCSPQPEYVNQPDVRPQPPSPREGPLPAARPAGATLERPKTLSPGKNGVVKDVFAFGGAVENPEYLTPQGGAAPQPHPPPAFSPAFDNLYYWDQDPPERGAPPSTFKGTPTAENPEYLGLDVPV

Row | IC50 [µM] | SMILES
1 | 4.4 | COc1c(C(C)C)cc(/C=C2/C(=O)Nc3cc(O)ccc32)cc1C(C)C [Example 4, 3-(3,5-Diisopropyl-4-methoxybenzylidene)-6-hydroxy-1,3-dihydroindol-2-one]
2 | 10.5 | COc1c(C(C)C)cc(/C=C2/C(=O)Nc3ccc(C(C)=O)cc32)cc1C(C)C [Example 5, 5-Acetyl-3-(3,5-diisopropyl-4-methoxybenzylidene)-1,3dihydroindol-2-one]
3 | 4.7 | COC(=O)c1ccc2c(c1)/C(=C\c1cc(C(C)C)c(OC)c(C(C)C)c1)C(=O)N2 [Example 6, 3-(3,5-Diisopropyl-4-methoxybenzylidene)-2-oxo-2,3-dihydro-1H-indole-5-carboxylic acid methyl ester]
4 | 16.5 | COc1ccc(/C=C2/C(=O)Nc3ccccc32)cc1C(C)C [Example 7, 3-(3-Isopropyl-4-methoxybenzylidene)-1,3-dihydroindol-2-one]
5 | 33.4 | COc1cc(C)c(C=C2C(=O)Nc3ccccc32)cc1C(C)C [Example 8, 3-(5-Isopropyl-4-methoxy-2-methylbenzylidene)-1,3-dihydroindol-2-one]
6 | 4.5 | COc1cc(C)c(C=C2C(=O)Nc3ccc(Cl)cc32)cc1C(C)C [Example 9, 5-Chloro-3-(5-isopropyl-4-methoxy-2-methylbenzylidene)-1,3-dihydroindol-2-one]
7 | 5.5 | COc1ccc2c(c1)/C(=C\c1cc(C(C)C)c(OC)c(C(C)C)c1)C(=O)N2 [Example 17, 3-(3,5-Diisopropyl-4-methoxybenzylidene)-5-methoxy-1,3-dihydroindol-2-one]
8 | 3.3 | COc1c(C(C)C)cc(/C=C2/C(=O)Nc3ccc(C)cc32)cc1C(C)C [Example 19, 3-(3,5-Diisopropyl-4-methoxybenzylidene)-5-methyl-1,3-dihydroindol-2-one]
9 | 15.7 | COc1c(C(C)C)cc(/C=C2/C(=O)Nc3ccc(N)cc32)cc1C(C)C [Example 20, 5-Amino-3-(3,5-diisopropyl-4-methoxy-benzylidene)-1,3-dihydroindol-2-one]
10 | 6.6 | COc1c(C)cc(/C=C2/C(=O)Nc3ccc(Cl)cc32)cc1C [Example 21, 5-Chloro-3-(4-methoxy-3,5-dimethylbenzylidene)-1,3-dihydroindol-2-one]
11 | 23.4 | COc1cc(C)c(C=C2C(=O)Nc3cc(NC(C)=O)ccc32)cc1C(C)C [Example 27, N-[3-(5-Isopropyl-4-methoxy-2-methyl-benzylidene)-2-oxo-2,3-dihydro-1H-indol-6-yl]-acetamide]
12 | 8.1 | COc1cc(C)c(/C=C2/C(=O)Nc3ccc(F)cc32)cc1C(C)C [Example 30, 5-Fluoro-3-(5-isopropyl-4-methoxy-2-methyl-benzylidene)-1,3-dihydroindol-2-one]
13 | 21.4 | COc1cc(C)c(/C=C2/C(=O)Nc3ccc(Br)cc32)cc1C(C)C [Example 36, 5-Bromo-3-(5-isopropyl-4-methoxy-2-methyl-benzylidene)-1,3-dihydroindol-2-one]
14 | > 50 | COc1cc(C)c(/C=C2/C(=O)Nc3ncccc32)cc1C(C)C [Example 45, 3-(5-Isopropyl-4-methoxy-2-methylbenzylidene)-1,3-dihydro-pyrrolo[2,3-b]pyridin-2-one]

More lines, now with the values behind:

Row | SMILES | IC50 [µM]
15 | COc1ccc(C=C2C(=O)Nc3cc(NC(C)=O)ccc32)cc1-c1cccc(NC(C)=O)c1 (mixture of isomers) [Example 63, N-[3-(3′-Acetylamino-6-methoxybiphenyl-3-ylmethylene)-2-oxo-2,3-dihydro-1H-indol-6-yl]-acetamide] | 20.4
16 | CC1(C)CCc2cc(C=C3C(=O)Nc4ccc(Br)cc43)ccc2O1 (racemic) [Example 34, 5-Bromo-3-(2,2-dimethylchroman-6-ylmethylene)-1,3-dihydroindol-2-one] | 3.5
17 | COc1c(C(C)C)cc(/C=C2/C(=O)Nc3cc(NC(C)=O)ccc32)cc1C(C)C [Example 3, N-[3-(3,5-Diisopropyl-4-methoxybenzylidene)-2-oxo-2,3-dihydro-1H-indol-6-yl]-acetamide] | 9.1
18 | COc1ccc(/C=C2/C(=O)Nc3ccccc32)cc1C1CCCC1 [Example 10, 3-(3-Cyclopentyl-4-methoxybenzylidene)-1,3-dihydroindol-2-one] | 14.1
19 | COc1ccc(/C=C2/C(=O)Nc3ccccc32)cc1C1CCCCC1 [Example 12, 3-(3-Cyclohexyl-4-methoxybenzylidene)-1,3-dihydroindol-2-one] | 31.9
20 | COc1ccc(/C=C2/C(=O)Nc3ccc(Br)cc32)cc1-c1ccccc1 [Example 13, 5-Bromo-3-(6-methoxybiphenyl-3-ylmethylene)-1,3-dihydroindol-2-one] | 9
21 | CC1(C)CCc2cc(/C=C3/C(=O)Nc4ccc(Cl)cc43)ccc2O1 [Example 15, 5-Chloro-3-(2,2-dimethyl-chroman-6-ylmethylene)-1,3-dihydroindol-2-one] | 4.4
22 | CC(=O)Nc1ccc2c(c1)NC(=O)/C2=C/c1ccc(OCCN2CCOCC2)c(C2CCCCC2)c1 [Example 16, N-{3-[3-Cyclohexyl-4-(2-morpholin-4-ylethoxy)-benzylidene]-2-oxo-2,3-dihydro-1H-indol-6-yl}-acetamide] | 4.2
23 | COc1ccc(/C=C2/C(=O)Nc3cc(NC(C)=O)ccc32)cc1-c1ccsc1 [Example 18, N-[3-(4-Methoxy-3-thiophene-3-ylbenzylidene)-2-oxo-2,3-dihydro-1H-indol-6-yl]-acetamide] | > 50
24 | CC1(C)CCc2cc(/C=C3/C(=O)Nc4ccc(F)cc43)ccc2O1 [Example 23, 3-(2,2-Dimethylchroman-6-ylmethylene)-5-fluoro-1,3-dihydroindol-2-one] | 27.1
25 | CC(C)c1cc(/C=C2/C(=O)Nc3ccc(Cl)cc32)cc(C(C)C)c1OCCN1CCOCC1 [Example 24, 5-chloro-3-[3,5-diisopropyl-4-(2-morpholin-4-ylethoxy)-benzylidene]-1,3-dihydroindol-2-one] | 7.1
26 | COc1ccc(/C=C2/C(=O)Nc3ccc(CCN4CCOCC4)cc32)cc1-c1ccsc1 [Example 26, 3-(4-Methoxy-3-thiophen-3-ylbenzylidene)-5-(2-morpholin-4-yl-ethyl)-1,3-dihydroindol-2-one] | > 50
27 | COc1ccc(C=C2C(=O)Nc3ccccc32)cc1-c1cccc(NC(C)=O)c1 [Example 29, N-[2′-Methoxy-5′-(2-oxo-1,2-dihydroindol-3-ylidenemethyl)-biphenyl-3-yl]-acetamide] | 8.1
28 | COc1ccc(/C=C2/C(=O)Nc3cc(NC(C)=O)ccc32)cc1-c1cccs1 [Example 31, N-[3-(4-Methoxy-3-thiophen-2-ylbenzylidene)-2-oxo-2,3-dihydro-1H-indol-6-yl]-acetamide] | 28.7
29 | COc1ccc(/C=C2/C(=O)Nc3ccccc32)cc1-c1ccsc1 [Example 35, 3-(4-Methoxy-3-thiophen-3-ylbenzylidene)-1,3-dihydroindol-2-one] | 13.8
30 | COc1cc(/C=C2/C(=O)Nc3ccccc32)c(-c2cccs2)cc1OC [Example 39, 3-(4,5-Dimethoxy-2-thiophen-2-ylbenzylidene)-1,3-dihydroindol-2-one] | 5.4
31 | CC(=O)Nc1ccc2c(c1)NC(=O)/C2=C/c1ccc(OCCN2CCOCC2)c(-c2cccs2)c1 [Example 40, N-{3-[4-(2-Morpholin-4-ylethoxy)-3-thiophen-2-ylbenzylidene]-2-oxo-2,3-dihydro-1H-indol-6-yl}-acetamide] | 22.6
32 | CCOc1cccc(-c2cc(C=C3C(=O)Nc4ccccc43)ccc2OC)c1 [Example 46, 3-(3′-Ethoxy-6-methoxybiphenyl-3-ylmethylene)-1,3-dihydroindol-2-one] | 25.3

Reference: patent publication US6855730B2, “3-methylidenyl-2-indolinone modulators of protein kinase” (Sugen, Inc., priority 1998, dated 2005)
